Data on 20 compounds can be found in patent publication US20250361230A1, “LATS Inhibitors and Uses Thereof” (The USA, as Represented by the Secretary, Dept. of Heath …, priority 2022, published 2025).

In the assay the target is T1, LATS1 Kinase-NanoLuc fusion in HEK-293 cells (Homo sapiens, UniProt O95835).
T1 construct: host or cells: HEK-293
T1 sequence (O95835 1-1130): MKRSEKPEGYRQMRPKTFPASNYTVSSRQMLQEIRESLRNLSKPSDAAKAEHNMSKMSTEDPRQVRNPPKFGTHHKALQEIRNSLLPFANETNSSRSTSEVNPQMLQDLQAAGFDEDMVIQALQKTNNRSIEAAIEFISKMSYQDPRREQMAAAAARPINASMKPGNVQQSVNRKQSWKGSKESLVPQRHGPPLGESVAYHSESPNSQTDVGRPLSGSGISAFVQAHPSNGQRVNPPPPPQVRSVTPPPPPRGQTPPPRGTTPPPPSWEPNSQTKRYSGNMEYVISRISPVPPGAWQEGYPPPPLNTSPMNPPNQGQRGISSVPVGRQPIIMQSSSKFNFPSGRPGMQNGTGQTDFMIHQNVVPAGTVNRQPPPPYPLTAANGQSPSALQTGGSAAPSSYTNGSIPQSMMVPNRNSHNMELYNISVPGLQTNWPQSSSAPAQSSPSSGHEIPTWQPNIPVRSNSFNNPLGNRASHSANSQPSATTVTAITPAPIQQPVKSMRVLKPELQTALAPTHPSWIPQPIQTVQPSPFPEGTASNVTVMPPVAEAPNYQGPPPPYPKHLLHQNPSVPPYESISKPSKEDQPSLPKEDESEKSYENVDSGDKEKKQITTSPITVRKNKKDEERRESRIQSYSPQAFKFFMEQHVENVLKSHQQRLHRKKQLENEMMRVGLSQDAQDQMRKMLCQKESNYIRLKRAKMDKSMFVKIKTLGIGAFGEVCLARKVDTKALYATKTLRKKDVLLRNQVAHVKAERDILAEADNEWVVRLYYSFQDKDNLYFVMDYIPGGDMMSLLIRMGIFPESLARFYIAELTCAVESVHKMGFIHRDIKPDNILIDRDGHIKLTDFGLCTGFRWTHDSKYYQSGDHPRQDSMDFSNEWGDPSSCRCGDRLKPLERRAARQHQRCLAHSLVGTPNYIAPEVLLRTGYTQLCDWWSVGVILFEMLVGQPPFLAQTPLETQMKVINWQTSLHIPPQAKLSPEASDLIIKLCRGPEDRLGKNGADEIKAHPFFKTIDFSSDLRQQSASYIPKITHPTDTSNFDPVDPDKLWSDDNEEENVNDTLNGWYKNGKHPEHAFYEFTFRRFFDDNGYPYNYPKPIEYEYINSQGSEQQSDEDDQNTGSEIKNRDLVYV
Description: NanoBRET target engagement assay in transfected HEK-293 cells, LATS1. The assay is classed as cell-based. The settings on record: Table 28, NanoBRET, HEK-293 cells; read-out: LATS1 (Cellular) IC50. From the text: The NanoBRET™ assay measures kinase engagement in real time in the context of the intact cell. The assay uses a Kinase-NanoLuc® fusion vector expressing a kinase protein to which a luciferase tag has been added, a cell-permeant fluorescent NanoBRET™ tracer, a NanoLuc® substrate, and an extracellular NanoLuc® inhibitor. Upon expression of the luciferase-tagged kinase, cells will produce a strong BRET signal only in the presence of the NanoBRET™ tracer. The extracellular NanoLuc® inhibitor ensures that the BRET signal observed emanates only from live cells. Because the BRET signal has tight distance constraints, addition of the test compound will decrease the BRET signal if the compound competes with the NanoBRET™ tracer for binding to the kinase domain. Under the appropriate tracer conditions established by the manufacturer, quantitative intracellular affinity and relative potency can then be determined using Mass Action model equations.
HEK-293 cells were purchased from ATCC. FuGENEHD Transfection Reagent, Kinase-NanoLuc® fusion plasmids, Transfection Carrier DNA, NanoBRET™ Tracers and dilution buffer, NanoBRET™ Nano-Glo Substrate, Extracellular NanoLuc® Inhibitor were obtained from Promega.
Assays were conducted following Promega assay protocol with some modifications as described further below. HEK-293 Cells were transiently transfected with Kinase-NanoLuc® Fusion Vector DNA by FuGENE HD Transfection Reagent. Test compounds were delivered into 384 well assay plate by Echo 550 (Labcyte Inc, Sunnyvale, CA). Transfected cells were harvested and mixed with NanoBRET™ Tracer Reagent and dispensed into 384 well plates and incubated at 37° C. in 5% CO2 cell culture incubator for 1 hour. The NanoBRET™ Nano-Glo Substrate plus Extracellular NanoLuc® Inhibitor Solution were added into the wells of the assay plate and incubated for 2-3 minutes at room temperature. The donor emission wavelength (460 nm) and acceptor emission wavelength (600 nm) were measured in the EnVision plate reader. The BRET Ratios were calculated. BRET Ratio=[(Acceptor sample÷Donor sample)−(Acceptor no-tracer control÷Donor no-tracer control)]. The IC50 values of compounds were calculated with Prism GraphPad program.
• 1. Transient Transfection of HEK-293 Cells NanoLuc® Fusion Vector DNA • 1). Cultivate HEK-293 cells (70-80% confluence) appropriately prior to assay. Trypsinize and collect HEK-293 cells. • 2). Prepare lipid: DNA complexes as follows: • a. Prepare a […] solution of DNA in Opti-MEM™ without serum that consists of the following ratios of carrier DNA and DNA encoding NanoLuc® fusion. 9.0 µg/mL of Transfection Carrier DNA, […] of NanoLuc® fusion vector DNA and 1 mL of Opti-MEM™ without phenol red. Mix thoroughly. • b. Add 30 μl of FuGENE HD Transfection Reagent into each milliliter of DNA mixture to form lipid: DNA complex. • c. Mix by inversion 10 times. • d. Incubate at ambient temperature for 20 minutes to allow complexes to form. • 3). In a sterile, conical tube, mix 1 part of lipid: DNA complex with 20 parts of HEK-293 cells in suspension. Mix gently by inversion 5 times. • 4). Dispense cells+lipid: DNA complex into a sterile tissue culture dish and incubate for 22-24 hours. • 2. Addition of Test Compounds (dry plate shooting): Each test compound is delivered from the compound source plate to the wells of 384-well white NBS plate by Echo 550. • 3. Preparation of Cells with NanoBRET™ Tracer Reagent • 1). Remove medium from dish with transfected HEK-293 cells via aspiration, trypsinize and allow cells to dissociate from the dish. • 2). Neutralize trypsin using medium containing serum and centrifuge at 200× g for 5 minutes to pellet the cells. Adjust the cell density to 2×10^5 cells/mL in Opti-MEM™ without phenol red. • 3). Prepare Complete 20× NanoBRET™ Tracer Reagent with Tracer Dilution Buffer. • 4). Dispense one part of Complete 20× NanoBRET™ Tracer Reagent to 20 parts of cells in the tube. Mix gently by inversion 10 times. • 5). […]
For `Cc1cc(-c2ccnc3[nH]cc(F)c23)ncc1[C@@]1(O)[C@H](C)CN(C2CCS(=O)(=O)CC2)C[C@@H]1C` [Compound 51, 4-((3R,4s,5S)-4-(6-(3-fluoro-1H-pyrrolo[2,3-b]pyridin-4-yl)-4-methylpyridin-3-yl)-4-hydroxy-3,5-dimethylpiperidin-1-yl)tetrahydro-2H-thiopyran 1,1-dioxide], the IC50 is more than 30000 nM. Next, `Cc1cc(-c2ccnc3[nH]cc(F)c23)ccc1[C@@]1(O)[C@H](C)CN(C2CCC2)C[C@@H]1C` [Compound 54, (3R,4s,5S)-1-cyclobutyl-4-(4-(3-fluoro-1H-pyrrolo[2,3-b]pyridin-4-yl)-2-methylphenyl)-3,5-dimethylpiperidin-4-ol]: 87 nM; `Cc1cc(-c2ccnc3[nH]cc(F)c23)ccc1[C@@]1(O)[C@H](C)CN(C2CCS(=O)(=O)CC2)C[C@@H]1C` [Compound 55, 4-((3R,4s, 5S)-4-(4-(3-fluoro-1H-pyrrolo[2,3-b]pyridin-4-yl)-2-methylphenyl)-4-hydroxy-3,5S-dimethylpiperidin-1-yl)tetrahydro-2H-thiopyran 1,1-dioxide]: 367 nM. The figure for `Cc1cc(-c2ccnc3[nH]cc(F)c23)cc(F)c1[C@@]1(O)[C@H](C)CN(C2CCS(=O)(=O)CC2)C[C@@H]1C` [Compound 57, 4-((3R,4s,5S)-4-(2-fluoro-4-(3-fluoro-1H-pyrrolo[2,3-b]pyridin-4-yl)-6-methylphenyl)-4-hydroxy-3,5-dimethylpiperidin-1-yl)tetrahydro-2H-thiopyran 1,1-dioxide] is 36.9 nM. The figure for `C[C@@H]1CN(C(=O)CN)C[C@H](C)[C@@]1(O)c1c(F)cc(-c2ccnc3[nH]cc(F)c23)cc1F` [Compound 58] is 147 nM. Consider `Cc1cc(-c2ccnc3[nH]cc(F)c23)ccc1[C@@]1(O)[C@H](C)CN(C(=O)CN)C[C@@H]1C` [Compound 60, 2-amino-1-((3R,4s,5S)-4-(4-(3-fluoro-1H-pyrrolo[2,3-b]pyridin-4-yl)-2-methylphenyl)-4-hydroxy-3,5-dimethylpiperidin-1-yl)ethan-1-one], for which the IC50 is 21.5 nM. Next, `Cc1cc(-c2ccnc3[nH]cc(F)c23)cc(F)c1[C@@]1(O)[C@H](C)CN(C(=O)CN)C[C@@H]1C` [Compound 61, 2-amino-1-((3R,4s,5S)-4-(2-fluoro-4-(3-fluoro-1H-pyrrolo[2,3-b]pyridin-4-yl)-6-methylphenyl)-4-hydroxy-3,5-dimethylpiperidin-1-yl)ethan-1-one]: 4 nM; `C[C@@H]1CN(CC(N)=O)C[C@H](C)[C@@]1(O)c1c(F)cc(-c2ccnc3[nH]cc(F)c23)cc1F` [Compound 88, 2-((3R,4s,5S)-4-(2,6-difluoro-4-(3-fluoro-1H-pyrrolo[2,3-b]pyridin-4-yl)phenyl)-4-hydroxy-3,5-dimethylpiperidin-1-yl)acetamide]: 205 nM; `C[C@@H]1CN(C2CCNCC2)C[C@H](C)[C@@]1(O)c1c(F)cc(-c2ccnc3[nH]cc(F)c23)cc1F` [Compound 90, (3R,4s,5S)-4-(2,6-difluoro-4-(3-fluoro-1H-pyrrolo[2,3-b]pyridin-4-yl)phenyl)-3,5-dimethyl-[1,4′-bipiperidin]-4-ol]: 338 nM.

Take `OC1(c2ccc(-c3ccnc4[nH]cc(F)c34)cc2)CCNCC1` [Compound 110, 4-(4-(3-fluoro-1H-pyrrolo[2,3-b]pyridin-4-yl)phenyl)piperidin-4-ol]: the half-maximal inhibitory concentration (IC50) was 17700 nM.

As to `OC1(c2ccc(-c3ccnc4[nH]ccc34)cc2)CCNCC1` [Compound 111, 4-(4-(1H-pyrrolo[2,3-b]pyridin-4-yl)phenyl)piperidin-4-ol], the IC50 was more than 50000 nM. In the case of `Cc1cc(-c2ccnc3[nH]cc(F)c23)cc(F)c1C1(O)CC2(CN(C3COC3)C2)C1` [Compound 139, 6-(2-fluoro-4-(3-fluoro-1H-pyrrolo[2,3-b]pyridin-4-yl)-6-methylphenyl)-2-(oxetan-3-yl)-2-azaspiro[3.3]heptan-6-ol], the 50% inhibitory concentration (IC50) worked out at 58.2 nM. For the compound `O=C([C@H]1CCCN1)N1CCC(O)(c2ccc(-c3ccnc4[nH]cc(F)c34)cc2)CC1` [Compound 142], the IC50 amounted to 1840 nM. Next, `Fc1c[nH]c2nccc(-c3ccc(C4CCNCC4)cc3)c12` [Compound 169, 3-fluoro-4-(4-(piperidin-4-yl)phenyl)-1H-pyrrolo[2,3-b]pyridine]: 25800 nM; `Fc1c[nH]c2nccc(-c3ccc(C4CCNCC4)c(Cl)c3)c12` [Compound 172, 4-(3-chloro-4-(piperidin-4-yl)phenyl)-3-fluoro-1H-pyrrolo[2,3-b]pyridine]: more than 50000 nM.

`Clc1c[nH]c2nccc(-c3ccc(C4CCNCC4)cc3)c12` [Compound 173, 3-chloro-4-(4-(piperidin-4-yl)phenyl)-1H-pyrrolo[2,3-b]pyridine]: the IC50 worked out at 1200 nM. The figure for `Cc1cc(-c2ccnc3[nH]ccc23)ccc1C1CCNCC1` [Compound 177, 4-(3-methyl-4-(piperidin-4-yl)phenyl)-1H-pyrrolo[2,3-b]pyridine] is 48300 nM. The figure for `c1cc(-c2ccc(C3CC4CCC(C3)N4)cc2)c2cc[nH]c2n1` (centres unmarked) [Compound 184, 4-(4-(8-azabicyclo[3.2.1]octan-3-yl)phenyl)-1H-pyrrolo[2,3-b]pyridine] is 57400 nM; for `CC1CC(c2ccc(-c3ccnc4[nH]ccc34)cc2)CC(C)N1` (centres unmarked) [Compound 187, 4-(4-(2,6-dimethylpiperidin-4-yl)phenyl)-1H-pyrrolo[2,3-b]pyridine] it is more than 50000 nM. `CC1(c2ccc(-c3ccnc4[nH]ccc34)cc2)CCNCC1` [Compound 201, 4-(4-(4-methylpiperidin-4-yl)phenyl)-1H-pyrrolo[2,3-b]pyridine]: the IC50 is more than 50000 nM.
